Laboratory results taken from EP2065370A1, “2-cyanobenzene sulfonamides as pesticides” (Bayer CropScience AG, priority 2007, dated 2009).

Tested on: Meloidogyne incognita
Experiment: Meloidogyne test (MELGIN spray treatment)
Assay type: in vivo
Conditions: 20 ppm; sand with egg-larvae suspension and lettuce seeds; 100 % = no galls found
Source text: Meloidogyne-Test (MELGIN Spritzbehandlung)
Zur Herstellung einer zweckmäßigen Wirkstoffzubereitung vermischt man 1 Gewichtsteil Wirkstoff mit der angegebenen Menge Lösungsmittel und verdünnt das Konzentrat mit Wasser auf die gewünschte Konzentration.
Gefäße werden mit Sand, Wirkstofflösung, Meloidogyne incognita-Ei-Larven-Suspension und Salatsamen gefüllt. Die Salatsamen keimen und die Pflänzchen entwickeln sich. An den Wurzeln entwickeln sich die Gallen.
Nach der gewünschten Zeit wird die nematizide Wirkung an Hand der Gallenbildung in % bestimmt. Dabei bedeutet 100 %, dass keine Gallen gefunden wurden; 0 % bedeutet, dass die Zahl der Gallen an den behandelten Pflanzen der der unbehandelten Kontrolle entspricht.
Bei diesem Test zeigen z. B. die folgenden Verbindungen der Herstellungsbeispiele eine Wirkung von ≥ 80 % bei einer Aufwandmenge von 20 ppm: Beispiel Nr. I-1, I-2

Row | SMILES | nematizide Wirkung an Hand der Gallenbildung [%]
1 | CN(Cc1ccccn1)S(=O)(=O)c1ccccc1C#N [I-1, 2-Cyano-N-methyl-N-(pyridin-2-ylmethyl)benzolsulfonamid] | ≥ 80
2 | CN(Cc1ccccn1)S(=O)(=O)c1cccc(F)c1C#N [I-2] | ≥ 80
